Test results published in US9169217B2, “Arylalkyl esters of 4-amino-6-(substituted phenyl)-picolinates and 6-amino-2-(substituted phenyl)-pyrimidinecarboxylates and their use as selective herbicides for crops” (Dow AgroSciences LLC, priority 2011, dated 2015).

Tests used:
Format in all cases: in vivo
[1] = system: Oryza sativa (Rice); assay: General postemergence herbicidal activity (Example 13); details: post-emergent spray, 70 g ai/ha, 14 DAA; crop (rice)
Procedure: (§1) Seeds or nutlets of the desired test plant species were planted in Sun Gro Metro-Mix® 360 planting mixture, which typically has a pH of 6.0 to 6.8 and an organic matter content of about 30 percent, in plastic pots with a surface area of 84.6 square centimeters (cm^2). When required to ensure good germination and healthy plants, a fungicide treatment and/or other chemical or physical treatment was applied. The plants were grown for 7-31 days (d) in a greenhouse with an approximate 15 hour (h) photoperiod which was maintained at about 23-29° C. during the day and 22-28° C. during the night. Nutrients and water were added on a regular basis and supplemental lighting was provided with overhead metal halide 1000-Watt lamps as necessary. The plants were employed for testing when they reached the first or second true leaf stage.
(§2) Treatments consisted of esters of compounds 33 and 39 and F and G. Compound F is methyl 6-amino-2-(4-chloro-2-fluoro-3-methoxyphenyl)-5-methoxypyrimidine-4-carboxylate; and compound G is methyl 4-amino-3-chloro-6-(4-chloro-2-fluoro-3-methoxyphenyl)picolinate. A weighed amount, determined by the highest rate to be tested, of each test compound was placed in a 25 mL glass vial and was dissolved in 4 mL of a 97:3 v/v (volume/volume) mixture of acetone and dimethyl sulfoxide (DMSO) to obtain concentrated stock solutions. […] The concentrated stock solutions obtained were diluted with 20 mL of an aqueous mixture containing acetone, water, isopropyl alcohol, DMSO, Atplus 411F crop oil concentrate, and Triton® X-155 surfactant in a 48.5:39:10:1.5:1.0:0.02 v/v ratio to obtain spray solutions containing the highest application rates. Additional application rates were obtained by serial dilution of 12 mL of the high rate solution into a solution containing 2 mL of a 97:3 v/v (volume/volume) mixture of acetone and DMSO and 10 mL of an aqueous mixture containing acetone, water, isopropyl alcohol, DMSO, Atplus 411F crop oil concentrate, and Triton® X-155 surfactant in a 48.5:39:10:1.5:1.0:0.02 v/v ratio to obtain ½×, ¼×, ⅛× and 1/16× rates of the high rate. Compound requirements are based upon a 12 mL application volume at a rate of 187 liters per hectare (L/ha). Formulated compounds were applied to the plant material with an overhead Mandel track sprayer equipped with 8002E nozzles calibrated to deliver 187 L/ha over an application area of 0.503 square meters (m^2) at a spray height of 18 inches (43 cm) above the average plant canopy height. Control plants were sprayed in the same manner with the solvent blank.
(§3) The treated plants and control plants were placed in a greenhouse as described above and watered by sub-irrigation to prevent wash-off of the test compounds. After 14 d, the condition of the test plants as compared with that of the untreated plants was determined visually and scored on a scale of 0 to 100 percent where 0 corresponds to no injury and 100 corresponds to complete kill.

[2] = system: Stellaria media (Chickweed, common); assay: as above; details: post-emergent spray, 70 g ai/ha, 14 DAA
Procedure: as §1, §2, §3

[3] = system: Triticum aestivum (Wheat, spring); assay: as above; details: post-emergent spray, 70 g ai/ha, 14 DAA; crop (spring wheat)
Procedure: as §1, §2, §3

[4] = system: Viola tricolor (Pansy, wild); assay: as above; details: post-emergent spray, 70 g ai/ha, 14 DAA
Procedure: as §1, §2, §3

[5] = system: Avena fatua (Oat, wild); assay: Postemergence herbicidal activity in cereal crops (Example 14); details: wheat cropping systems, postemergence spray, 35 g ae/ha, 21 DAA
[6] = system: Lolium multiflorum (Ryegrass, Italian); assay: as above; details: wheat cropping systems, postemergence spray, 17.5 g ae/ha, 21 DAA
[7] = system: Setaria viridis (Foxtail, green); assay: as above; details: wheat cropping systems, postemergence spray, 17.5 g ae/ha, 21 DAA

COC(=O)c1nc(-c2ccc(Cl)c(OC)c2F)nc(N)c1OC [Compound F, methyl 6-amino-2-(4-chloro-2-fluoro-3-methoxyphenyl)-5-methoxypyrimidine-4-carboxylate, reference compound]
Visual Injury (%) ORYSA [1]: 75%
Visual Injury (%) STEME [2]: 90%
Visual Injury (%) TRZAS [3]: 70%
Visual Injury (%) VIOTR [4]: 80%
Visual Injury (%) AVEFA [5]: 20%
Visual Injury (%) LOLMU [6]: 60%
Visual Injury (%) SETVI [7]: 85%
